Measured values reported in PMC3503826, “Limits of Ligand Selectivity from Docking to Models: In Silico Screening for A1 Adenosine Receptor Antagonists” (PLoS ONE, 2012).

Tests used:
human A1AR = molecular target: T1, human A1AR (Homo sapiens, UniProt P30542); assay: Radioligand binding ([3H]DPCPX), membranes of CHO cells expressing hA1AR; settings: for inhibition at 10 µM: percent inhibition at 10 µM compound, [3H]DPCPX, read-out: A1 % Inhibition; for inhibition at 10 µM / Ki: hA1AR, CHO cell membranes; for Ki: [3H]DPCPX 0.5 nM, mean ± standard error, read-out: A1 Ki
T1 construct: expressed in transfected cells
T1 sequence (P30542 1-326): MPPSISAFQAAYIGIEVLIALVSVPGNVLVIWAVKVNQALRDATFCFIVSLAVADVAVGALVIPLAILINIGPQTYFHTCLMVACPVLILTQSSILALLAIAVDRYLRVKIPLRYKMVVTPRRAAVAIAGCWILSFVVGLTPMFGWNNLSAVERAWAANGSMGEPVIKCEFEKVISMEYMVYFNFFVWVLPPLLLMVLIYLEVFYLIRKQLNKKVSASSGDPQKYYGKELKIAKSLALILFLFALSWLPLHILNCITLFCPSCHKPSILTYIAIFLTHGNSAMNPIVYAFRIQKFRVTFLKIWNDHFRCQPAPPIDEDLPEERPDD
Experimental: (§1) Binding affinity for three human AR (hAR) subtypes was measured using standard radioligand assays and membrane preparations from Chinese hamster ovary (CHO) cells (A1 and A3) or human embryonic kidney (HEK) 293 cells (A2A) stably expressing a hAR subtype (Table 1).
(§2) Receptor binding assays: [^3H]8-Cyclopentyl-1,3-dipropylxanthine ([^3H]DPCPX, 120 Ci/mmol) and [^125I]N ^6-(4-amino-3-iodobenzyl)adenosine-5'-N-methyluronamide ([^125I]I-AB-MECA, 2200 Ci/mmol) were purchased from Perkin–Elmer Life and Analytical Science (Boston, MA). [^3H](2-[p-(2-Carboxyethyl)phenyl-ethylamino]-5'-N-ethylcarboxamido-adenosine) ([^3H]CGS21680, 39 Ci/mmol) was purchased from American Radiolabeled Chemicals, Inc. (St. Louis, MO). Other pharmacological reagents were purchased from Tocris-R&D Systems, Inc. (Minneapolis, MN). Test compounds were prepared as 5 mM stock solutions in DMSO and stored frozen.
(§3) Cell Culture and Membrane Preparation: CHO cells stably expressing the recombinant hA1 and hA3ARs, and HEK-293 cells stably expressing the hA2AAR were cultured in Dulbecco’s modified Eagle medium (DMEM) and F12 (1∶1) supplemented with 10% fetal bovine serum, 100 units/mL penicillin, 100 µg/mL streptomycin, and 2 µmol/mL glutamine. In addition, 800 µg/mL geneticin was added to the A2A media, while 500 µg/mL hygromycin was added to the A1 and A3 media. After harvesting, cells were homogenized and suspended in PBS. Cells were then centrifuged at 240 g for 5 min, and the pellet was resuspended in 50 mM Tris-HCl buffer (pH 7.5) containing 10 mM MgCl2. The suspension was homogenized and was then ultra-centrifuged at 14,330 g for 30 min at 4°C. The resultant pellets were resuspended in Tris buffer and incubated with adenosine deaminase (3 units/mL) for 30 min at 37°C. The suspension was homogenized with an electric homogenizer for 10 sec, pipetted into 1 mL vials and then stored at -80°C until the binding experiments. The protein concentration was measured using the BCA Protein Assay Kit from Pierce Biotechnology, Inc. (Rockford, IL).
(§4) Binding assays: Standard radioligand binding assays for A1, A2A, and A3ARs were used [37]–[39]. Into each tube in the binding assay was added 50 µL of increasing concentrations of the test ligand in Tris-HCl buffer (50 mM, pH 7.5) containing 10 mM MgCl2, 50 µL of the appropriate agonist radioligand, and finally 100 µL of membrane suspension. For the A1AR (22 µg of protein/tube) the radioligand used was [^3H]DPCPX (final concentration of 0.5 nM). For the A2AAR (20 µg/tube) the radioligand used was [^3H]CGS21680 (final concentration 10 nM). For the A3AR (21 µg/tube) the radioligand used was [^125I]I-AB-MECA (final concentration 0.2 nM). Nonspecific binding was determined using a final concentration of 10 µM NECA diluted with the buffer. The mixtures were incubated at 25°C for 60 min in a shaking water bath. Binding reactions were terminated by filtration through Brandel GF/B filters under a reduced pressure using a M-24 cell harvester (Brandel, Gaithersburg, MD). Filters were washed three times with 3 mL of 50 mM ice-cold Tris-HCl buffer (pH 7.5). Filters for A1 and A2AAR binding were placed in scintillation vials containing 5 mL of Hydrofluor scintillation buffer and counted using a Perkin Elmer Liquid Scintillation Analyzer (Tri-Carb 2810TR). Filters for A3AR binding were counted using a Packard Cobra II γ-counter.
(§5) Data analysis: Binding and functional parameters were calculated using Prism 5.0 software (GraphPAD, San Diego, CA, USA). IC50 values obtained from binding inhibition curves were converted to Ki values using the Cheng-Prusoff equation [40]. Data were expressed as mean ± standard error or percentage inhibition at 10 µM.

human A3AR = molecular target: T2, human A3AR (Homo sapiens, UniProt P0DMS8); assay: Radioligand binding ([125I]I-AB-MECA), membranes of CHO cells expressing hA3AR; settings: for inhibition at 10 µM: percent inhibition at 10 µM compound, [125I]I-AB-MECA, read-out: A3 % Inhibition; for inhibition at 10 µM / Ki: hA3AR, CHO cell membranes; for Ki: [125I]I-AB-MECA 0.2 nM, mean ± standard error, read-out: A3 Ki
T2 construct: expressed in transfected cells
T2 sequence (P0DMS8 1-318): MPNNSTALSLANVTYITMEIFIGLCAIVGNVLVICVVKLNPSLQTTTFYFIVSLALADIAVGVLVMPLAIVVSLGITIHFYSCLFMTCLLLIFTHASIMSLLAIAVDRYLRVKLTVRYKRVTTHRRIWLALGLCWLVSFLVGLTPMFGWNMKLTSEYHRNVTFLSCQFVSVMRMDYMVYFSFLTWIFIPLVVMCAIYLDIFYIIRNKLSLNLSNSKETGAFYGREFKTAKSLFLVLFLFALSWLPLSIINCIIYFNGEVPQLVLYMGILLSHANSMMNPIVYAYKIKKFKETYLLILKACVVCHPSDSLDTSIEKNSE
Experimental: as §1, §2, §3, §4, §5

human A2AAR = molecular target: T3, human A2AAR (Homo sapiens, UniProt P29274); assay: Radioligand binding ([3H]CGS21680), membranes of HEK293 cells expressing hA2AAR; settings: HEK293 cell membranes; for Ki: [3H]CGS21680 10 nM, mean ± standard error, read-out: A2A Ki; for inhibition at 10 µM: percent inhibition at 10 µM compound, [3H]CGS21680, read-out: A2A % Inhibition
T3 construct: expressed in transfected cells
T3 sequence (P29274 whole entry): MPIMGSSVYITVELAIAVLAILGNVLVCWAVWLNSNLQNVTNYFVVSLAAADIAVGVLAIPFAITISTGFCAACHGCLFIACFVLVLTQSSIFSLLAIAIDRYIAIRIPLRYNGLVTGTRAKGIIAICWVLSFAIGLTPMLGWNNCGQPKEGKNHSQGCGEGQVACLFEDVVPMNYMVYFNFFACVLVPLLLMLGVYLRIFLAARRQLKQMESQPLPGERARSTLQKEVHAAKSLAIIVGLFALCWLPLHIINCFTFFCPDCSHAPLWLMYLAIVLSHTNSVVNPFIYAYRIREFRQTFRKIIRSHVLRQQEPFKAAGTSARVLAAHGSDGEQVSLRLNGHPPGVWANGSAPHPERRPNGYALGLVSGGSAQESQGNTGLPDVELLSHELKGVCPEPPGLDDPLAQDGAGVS
Experimental: as §1, §2, §3, §4, §5

bovine A1AR = molecular target: bovine A1AR; set-up: method as in PMID 21080692; settings: reference compound; cited from earlier work

inhibition at 10 µM (human A1AR) | Ki (human A2AAR) | Ki (human A3AR) | Ki (human A1AR) | Compound | other results
17 ± 9% | 3.31 ± 0.27 µM | – | – | CC(NC(=O)c1ccco1)C(=O)Nc1nc(-c2ccccn2)cs1 (stereo not drawn) [Compound 7] | inhibition at 10 µM (human A3AR): 43 ± 3%
20 ± 4% | – | 9.33 ± 1.8 µM | – | Nc1nc(COC(=O)c2cc3cc(F)ccc3[nH]2)nc2ccccc12 [Compound 15] | inhibition at 10 µM (human A2AAR): 5 ± 3%
13 ± 9% | – | 13.7 µM | – | CCCn1nc(C(=O)Nc2nc(-c3ccccn3)cs2)ccc1=O [Compound 11] | inhibition at 10 µM (human A2AAR): 35 ± 3%
– | 6.66 ± 0.86 µM | – | 3.34 ± 0.56 µM | Cn1c(=O)c2[nH]c(NCC3CCCO3)nc2n(-c2ccccc2)c1=O (stereo not drawn) [Compound 19] | inhibition at 10 µM (human A3AR): 23 ± 3%
33 ± 9% | 6.14 ± 1.69 µM | 0.04 ± 0.006 µM | – | Nc1nc(Cn2nnc(-c3ccccc3)n2)nc(Nc2ccccc2)n1 [Compound 24] | Selectivity for A3AR (human A3AR; judged from Ki at the three hAR subtypes): slightly selective
9 ± 9% | – | 9.06 ± 1.1 µM | – | O=C(Nc1nc(-c2ccccn2)cs1)c1cc2c(F)cccc2[nH]1 [Compound 10] | inhibition at 10 µM (human A2AAR): 37 ± 1%
– | 1.37 ± 0.47 µM | 3.85 ± 0.59 µM | 3.94 ± 0.39 µM | Cc1cc(C)c2c(=O)[nH]c(SCC(=O)Nc3cc(C)on3)nc2n1 [Compound 26] | –
19 ± 10% | 6.54 ± 1.09 µM | – | – | Cc1cccc2c(=O)[nH]c(CSc3n[nH]c(C(C)C)n3)nc12 [Compound 14] | inhibition at 10 µM (human A3AR): 49 ± 1%
28 ± 9% | 3.65 ± 0.87 µM | 2.78 ± 0.92 µM | – | COc1ccc(OCC(=O)Nc2nc(-c3ccccn3)cs2)cc1 [Compound 12] | –
2 ± 2% | 2.36 ± 0.26 µM | 4.86 ± 0.33 µM | – | Cc1ccccc1Nc1nc(N)nc(COc2ccccc2C#N)n1 [Compound 9] | –
– | 0.74 ± 0.39 µM | – | 0.4 ± 0.06 µM | CCOc1cccc2cc(C(=O)NCc3ccccn3)c(=N)oc12 [Compound 17] | inhibition at 10 µM (human A3AR): 48 ± 7%
– | – | – | – | OC1CCC(Nc2nc(-c3ccccc3)nc3c2nnn3Cc2ccccc2)CC1 (stereo not drawn) [Compound 5, 4-[(3-benzyl-5-phenyl-triazolo[4,5-e]pyrimidin-7-yl)amino]cyclohexan-1-ol] | Ki (bovine A1AR): 0.003 µM
– | – | – | 3.46 ± 0.42 µM | O=C(Nc1nc(-c2ccccn2)cs1)c1cccc(-n2cnnn2)c1 [Compound 8] | Selectivity for A1AR over A2AAR and A3AR (human A1AR; by the criteria used in this screen (>50% inhibition at 10 µM)): selective for the A1AR; inhibition at 10 µM (human A3AR): 35 ± 4%; inhibition at 10 µM (human A2AAR): 11 ± 6%
36% | 9.3 ± 0.7 µM | – | – | CCN(Cc1nc2ccccc2c(=O)[nH]1)C(=O)c1cc(C2CC2)[nH]n1 [Compound 22] | inhibition at 10 µM (human A3AR): 42 ± 6%
– | 1.34 ± 0.31 µM | 0.205 ± 0.03 µM | 0.98 ± 0.09 µM | CCS(=O)(=O)Nc1cccc(C(=O)Nc2nc3ccccc3[nH]2)c1 [Compound 21] | –
– | 2.13 ± 0.72 µM | 1.76 ± 0.21 µM | 3.43 ± 1.03 µM | Cn1nnnc1SCC(=O)Nc1nc(-c2cccs2)cs1 [Compound 18] | –
– | 3.78 ± 0.83 µM | 0.07 ± 0.02 µM | 1.22 ± 0.34 µM | O=C(Nc1nc(-c2cccc(F)c2)cs1)c1ccc2[nH]nnc2c1 [Compound 23] | –
13 ± 2% | – | 13.4 µM | – | CN(C(=O)Cc1csc(NC(=O)C2CC2)n1)c1ccccc1 [Compound 16] | inhibition at 10 µM (human A2AAR): 36 ± 0.2%
45% | 3.56 ± 0.51 µM | 1.52 ± 0.36 µM | – | N#Cc1cccc(C(=O)Nc2nc(-c3ccccn3)cs2)c1 [Compound 20] | –
10 ± 10% | 10.9 µM | 3.48 ± 1.1 µM | – | COc1cccc(/C=C/C(=O)Nc2nc(-c3ccccn3)cs2)c1 [Compound 13] | –
– | 1.45 ± 0.17 µM | 0.55 ± 0.07 µM | 2.93 ± 0.48 µM | C=CCOc1ccccc1/C=N/Nc1nc2ccccc2c(=O)n1C [Compound 25] | –
